Measurements published in article PMC7915449, “Differential Regulation of Bilastine Affinity for Human Histamine H1 Receptors by Lys 179 and Lys 191 via Its Binding Enthalpy and Entropy” (International Journal of Molecular Sciences, 2021).

What was measured:
[1] = target: T1, K191A (Lys191 mutant of H1 receptor to alanine) (Homo sapiens, UniProt P35367, K191A); assay: [3H]mepyramine displacement binding, membranes of CHO cells expressing K191A mutant
T1 construct: 3xHA (three copies of hemagglutinin YPYDVPDYA) (N); expressed in transfected cells; membrane preparations
T1 sequence (P35367 whole entry K191A): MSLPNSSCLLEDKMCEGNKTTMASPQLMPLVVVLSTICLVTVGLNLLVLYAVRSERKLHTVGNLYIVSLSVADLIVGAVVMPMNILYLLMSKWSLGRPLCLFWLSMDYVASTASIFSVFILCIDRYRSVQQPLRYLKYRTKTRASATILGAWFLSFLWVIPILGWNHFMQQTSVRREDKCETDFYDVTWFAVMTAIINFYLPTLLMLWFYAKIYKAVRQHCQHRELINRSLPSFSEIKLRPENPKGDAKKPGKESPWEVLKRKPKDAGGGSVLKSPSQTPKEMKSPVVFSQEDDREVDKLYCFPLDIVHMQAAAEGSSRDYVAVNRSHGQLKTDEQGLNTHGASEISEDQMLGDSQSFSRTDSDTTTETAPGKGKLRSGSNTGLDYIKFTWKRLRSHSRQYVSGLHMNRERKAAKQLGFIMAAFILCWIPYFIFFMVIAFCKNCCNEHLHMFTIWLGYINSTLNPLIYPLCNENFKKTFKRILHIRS
Method: (§1) To evaluate changes in the binding affinity of bilastine for H1 receptors by mutations of Lys179^ECL2 and/or Lys191^5.39, the IC50 for bilastine was first obtained from the displacement curves for the binding of 3 nM [^3H] mepyramine to membrane preparations of CHO cells expressing wild-type human H1 receptors (WT), Lys179^ECL2 or Lys191^5.39 mutants of WT to alanine (K179A and K191A), and both Lys179^ECL2 and Lys191^5.39 mutants of WT to alanine (K179A + K191A) at 4 °C–37 °C (Figure 3). The Ki values for bilastine were then calculated from the IC50, as described in the materials and methods section.
CHO cells stably expressing WT, K179A, K191A, and K179A + K191A were cultured, and membrane preparations were obtained as described previously. The receptor binding assay with [^3H] mepyramine, a radioligand for H1 receptors, was performed in accordance with the methods described previously. Briefly, aliquots (0.1 mL) of membrane preparations (approximately 50 µg of membrane proteins) were incubated with 3 nM [^3H] mepyramine in the presence or absence of various concentrations of bilastine for 3 h at 37 °C, 24 h at 25 °C and 14 °C, and 7 days at 4 °C in normal HEPES buffer (NaCl, 120 mM; KCl, 5.4 mM; MgCl2, 1.6 mM; CaCl2, 1.8 mM, D-glucose, 11 mM; and HEPES, 25 mM; pH 7.4 at 37 °C; final volume 1 mL). The reaction mixture was filtered through glass fiber filters, and the radioactivity trapped on the filters was determined by scintillation counting. All determinations were made in quadruplicate. The protein content in the membrane preparations was determined using a BCA protein assay kit (Pierce, Rockford, IL, USA).
(§2) The IC50 for bilastine was determined by fitting the displacement curves to the one-site model (KaleidaGraph; Synergy Software, Reading, PA, USA):B = 100 − P × C/(C + IC50) where B is the amount of [^3H] mepyramine bound, C is the free concentration of bilastine, and P is the percentage of the binding sites of bilastine. […]

[2] = target: T2, wild-type human H1 receptors (WT) (Homo sapiens, UniProt P35367); assay: biochemical; type: binding
T2 construct: 3xHA (three copies of hemagglutinin YPYDVPDYA) (N); membrane preparations
T2 sequence (P35367 whole entry): as the sequence (P35367 whole entry K191A) above, with A191K counted along it

[3] = test system: wild-type human H1 receptors (WT); assay: biochemical; type: binding; conditions: mutants K179A, K191A, K179A + K191A versus WT, 25 °C; significant
[4] = target: T3, K179A + K191A (both Lys179 and Lys191 mutant of H1 receptor to alanine) (Homo sapiens, UniProt P35367, K179A/K191A); assay: [3H]mepyramine displacement binding, membranes of CHO cells expressing K179A + K191A mutant
T3 construct: 3xHA (three copies of hemagglutinin YPYDVPDYA) (N); expressed in transfected cells; membrane preparations
T3 sequence (P35367 whole entry K179A/K191A): as the sequence (P35367 whole entry K191A) above, with K179A counted along it
Method: as §1
(§3) CHO cells stably expressing WT, K179A, K191A, and K179A + K191A were cultured, and membrane preparations were obtained as described previously. […] The reaction mixture was filtered through glass fiber filters, and the radioactivity trapped on the filters was determined by scintillation counting. […] The protein content in the membrane preparations was determined using a BCA protein assay kit (Pierce, Rockford, IL, USA).
as §2

[5] = target: T4, K179A (Lys179 mutant of H1 receptor to alanine) (Homo sapiens, UniProt P35367, K179A); assay: [3H]mepyramine displacement binding, membranes of CHO cells expressing K179A mutant
T4 construct: 3xHA (three copies of hemagglutinin YPYDVPDYA) (N); expressed in transfected cells; membrane preparations
T4 sequence (P35367 whole entry K179A): as the sequence (P35367 whole entry K191A) above, with K179A, A191K counted along it
Method: as §1, §3, §2

[6] = K191A versus WT, van 't Hoff analysis 4-37 °C, significant

With CCOCCn1c(C2CCN(CCc3ccc(C(C)(C)C(=O)O)cc3)CC2)nc2ccccc21 [bilastine, Bilastine] the Ki [1] was 2.57 ± 0.16 nM, the “increase in enthalpy-dependent binding forces (∆H°) by mutation” value [1, 6] was 8.1 kJ/mol and the “reduction in the entropy-dependent binding forces (∆T∆S°) by mutation” value [1, 6] was 8.2 kJ/mol. The Ki [2] was 1.92 ± 0.08 nM, the “reduction of affinity for H1 receptors following mutation of Lys179 and/or Lys191” value [3] was 1.3 to 4.1 times and the Ki [4] was 7.96 ± 0.76 nM. The “reduction in the entropy-dependent binding forces (∆T∆S°) by mutation” value ([4]; K179A + K191A versus WT, van 't Hoff analysis 4-37 °C, not significant) was 2.2 kJ/mol, the Ki [5] was 5.2 ± 1.18 nM and the “reduction in the enthalpy-dependent binding forces (∆H°) by mutation” value ([5]; K179A versus WT, van 't Hoff analysis 4-37 °C, not significant) was 1.9 kJ/mol.
